Measurements: patent US7504508B2, “PGD2 receptor antagonists for the treatment of inflammatory diseases” (Millennium Pharmaceuticals, Inc., priority 2002, dated 2009)

Biological target: T1, cloned human CRTH2 receptor (Homo sapiens, UniProt Q9Y5Y4)
T1 construct: purchased Biosignal; host or cells: HEK-293 cells stably expressing human CRTH2 and G-alpha-16 (membranes)
T1 sequence (Q9Y5Y4 1-395): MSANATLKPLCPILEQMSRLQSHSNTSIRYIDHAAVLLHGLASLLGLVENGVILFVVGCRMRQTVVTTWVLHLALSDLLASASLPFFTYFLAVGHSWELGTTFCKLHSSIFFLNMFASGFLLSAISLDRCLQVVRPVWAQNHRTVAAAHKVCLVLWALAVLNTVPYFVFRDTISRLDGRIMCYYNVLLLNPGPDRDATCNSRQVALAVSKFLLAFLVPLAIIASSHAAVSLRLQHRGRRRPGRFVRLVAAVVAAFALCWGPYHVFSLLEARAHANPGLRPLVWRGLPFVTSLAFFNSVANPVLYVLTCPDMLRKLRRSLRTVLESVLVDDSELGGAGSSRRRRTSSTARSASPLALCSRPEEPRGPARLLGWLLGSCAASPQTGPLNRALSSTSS
Assay: Radioligand membrane binding assay: inhibition of [3H] PGD2 binding to CRTH2 (Scintillation Proximity Assay)
Details: inhibition of [3H] PGD2 binding to membranes of HEK-293 cells stably expressing human CRTH2; SPA; 10 point curve from 10 μM; room temperature, approximately 2 hours
Protocol: This radioligand membrane binding assay evaluates the ability of compounds to inhibit [^3H] Prostaglandin D2 (PGD2) binding to the cloned human CRTH2 receptor stably expressed in HEK-293 cells (expressing human CRTh2 receptor and α subunit or the heteronimeric G protein 16 were prepared by Biosignal Company) using Scintillation Proximity Assay.
A binding buffer containing 50 mM Tris-HCl (pH 7.5), 5 mM MgCl2 and 1 mM EDTA was prepared immediately prior to performing the assay. A bead/membrane solution at twice the final assay concentration comprising membranes (membranes bought from Biosignal) from the HEK-293 cells cloned to express CRTH2 receptor bound to and [3H] PGD2 at twotimes the final assay concentration were prepared and stored on ice before adding to wells. Cold PGD2 at twenty times the final assay concentration was prepared and stored on ice before adding to wells defining non-specific binding (NSB) corning plates #3653 were used for this assay.
10 mM stock concentrations of compounds in 100% DMSO were prepared and stored at room temperature. A 10 point concentration response curve was then constructed for each compound, starting at 10 μM (final assay concentration). The compounds were prepared at 40 times final assay concentrations with nine consequent-3-fold dilutions.
0.1 μl of each concentration of compound were added to the appropriate well of the 384 plate and 2 μl of cold PGD2 was added into the wells defining NSB. 20 μl of [^3H] PGD2 and then 20 μl of 2× of bead/membrane solution were then added to each well.
The plates were allowed to incubate at room temperature for approximately 2 hours and then counted on Packard Topcount using SPA tritium protocol for 1 minute/well.
The percent inhibition of PGD2 binding (PGD2 used at the KD value or lower) to the HEK-293 cell membranes was determined, the assay was always run as duplicate for n=1 for a total of n=2.

SMILES	Ki [µM]
CC(=O)N(c1ccccc1)[C@H]1C[C@@H](C)N(C(=O)c2ccc(C(C)(C)C)cc2)c2ccccc21 [Compound A-8, (2R,4S)-cis-N-[1-(4-tert-butyl-benzoyl)-2-methyl-1,2,3,4-tetrahydro-quinolin-4-yl]-N-phenyl-acetamide]	< 60
CC(=O)N(c1ccccc1)[C@H]1C[C@@H](C)N(C(=O)c2cccs2)c2ccccc21 [Compound A-11, (2R,4S)-N-[2-methyl-1-(thiophene-2-carbonyl)-1,2,3,4-tetrahydro-quinolin-4-yl]-N-phenyl-acetamide]	< 10
CCC(=O)N(c1ccccc1)[C@H]1C[C@@H](C)N(C(=O)c2ccc(C3CCN(C(C)=O)CC3)cc2)c2ccccc21 [Compound A-51, (2R,4S)-cis-N-{1-[4-(1-acetyl-piperidin-4-yl)-benzoyl]-2-methyl-1,2,3,4-tetrahydro-quinolin-4-yl}-N-phenyl-propionamide]	< 10
CC(=O)N(c1ccccc1)C1CC(C)N(C(=O)c2ccc(F)cc2)c2ccccc21 (stereo not drawn) [Compound A-53]	< 60
CC(=O)N(c1ccccc1)[C@H]1C[C@@H](C)N(C(=O)c2ccc(F)cc2)c2ccccc21 [Compound A-58]	< 60
CC(=O)N(c1ccccc1)[C@H]1C[C@@H](C)N(C(=O)c2ccno2)c2ccccc21 [Compound A-70, (2R,4S)-cis-N-[1-(isoxazole-5-carbonyl)-2-methyl-1,2,3,4-tetrahydro-quinolin-4-yl]-N-phenyl-acetamide]	< 10
CCC(=O)N(c1ccccc1)[C@H]1C[C@@H](C)N(C(=O)c2ccc(N3CCOCC3)cc2)c2ccccc21 [Compound A-120, (2R,4S)-cis-N-[2-methyl-1-(4-morpholin-4-yl-benzoyl)-1,2,3,4-tetrahydro-quinolin-4-yl]-N-phenyl-propionamide]	< 10
COc1cccc(C(=O)N2c3ccccc3[C@@H](N(C(C)=O)c3ccccc3)C[C@H]2C)c1 [Compound A-126, (2R,4S)-cis-N-[1-(3-methoxy-benzoyl)-2-methyl-1,2,3,4-tetrahydro-quinolin-4-yl]-N-phenyl-acetamide]	< 60
CC(=O)N(c1ccccc1)C1CC(C)N(C(=O)c2sc(-c3ccccc3)nc2C)c2ccccc21 (stereo not drawn) [Compound A-156]	< 10

Further lines, results first:

Ki [µM]	SMILES
< 10	CCC(=O)N(c1ccc(Cl)cc1)[C@@H]1C[C@H](CO)N(C(=O)c2ccc(F)cc2)c2ccccc21 (racemic) [Compound B-105, (±)-Cis-N-(4-chloro-phenyl)-N-[1-(4-fluoro-benzoyl)-2-hydroxymethyl-1,2,3,4-tetrahydro-quinolin-4-yl]-propionamide]
< 10	CCC(=O)N(c1ccc(Cl)cc1)[C@@H]1C[C@H](CN(CC)CC)N(C(=O)c2ccc(F)cc2)c2ccccc21 (racemic) [Compound B-106, (±)-Cis-N-(4-chloro-phenyl)-N-[2-diethylaminomethyl-1-(4-fluoro-benzoyl)-1,2,3,4-tetrahydro-quinolin-4-yl]-propionamide]
< 10	CCC(=O)N(c1ccc(Cl)cc1)[C@@H]1C[C@H](COC)N(C(=O)c2ccc(F)cc2)c2ccccc21 (racemic) [Compound B-107, (±)-Cis-N-(4-chloro-phenyl)-N-[1-(4-fluoro-benzoyl)-2-methoxymethyl-1,2,3,4-tetrahydro-quinolin-4-yl]-propionamide]
< 10	CCC(=O)N(c1ccc(Cl)cc1)[C@@H]1C[C@H](c2ccccc2)N(C(=O)c2ccc(F)cc2)c2ccccc21 (racemic) [Compound B-108, (±)-Cis-N-(4-chloro-phenyl)-N-[1-(4-fluoro-benzoyl)-2-phenyl-1,2,3,4-tetrahydro-quinolin-4-yl]-propionamide]
< 10	CCC(=O)N(c1ccc(Cl)cc1)[C@@H]1C[C@H](C(F)(F)F)N(C(=O)c2ccc(F)cc2)c2ccc(OC)cc21 (racemic) [Compound B-109, (±)-Cis-N-(4-chloro-phenyl)-N-[1-(4-fluoro-benzoyl)-6-methoxy-2-trifluoromethyl-1,2,3,4-tetrahydro-quinolin-4-yl]-propionamide]
< 10	CCC(=O)N(c1ccc(Cl)cc1)[C@@H]1C[C@H](C(F)(F)F)N(C(=O)c2cccc(OC)c2)c2ccc(OC)cc21 (racemic) [Compound B-110, (±)-Cis-N-(4-chloro-phenyl)-N-[6-methoxy-1-(3-methoxy-benzoyl)-2-trifluoromethyl-1,2,3,4-tetrahydro-quinolin-4-yl]-propionamide]
< 10	CCC(=O)N(c1ccc(Cl)cc1)[C@@H]1C[C@H](C(F)(F)F)N(C(=O)c2ccco2)c2ccc(OC)cc21 (racemic) [Compound B-111, (±)-Cis-N-(4-chloro-phenyl)-N-[1-(furan-2-carbonyl)-6-methoxy-2-trifluoromethyl-1,2,3,4-tetrahydro-quinolin-4-yl]-propionamide]
< 10	CCC(=O)N(c1ccc(Cl)cc1)[C@@H]1C[C@H](Cc2ccccc2)N(C(=O)c2ccc(F)cc2)c2ccccc21 (racemic) [Compound B-112, (±)-Cis-N-[2-benzyl-1-(4-fluoro-benzoyl)-1,2,3,4-tetrahydro-quinolin-4-yl]-N-(4-chloro-phenyl)-propionamide]
< 10	CC(=O)N(c1ccc(Cl)cc1)[C@H]1C[C@@H](C)N(C(=O)c2cccs2)c2ccccc21 [Compound B-7, (2R,4S)-cis-N-(4-chloro-phenyl)-N-[2-methyl-1-(thiophene-2-carbonyl)-1,2,3,4-tetrahydro-quinolin-4-yl]-acetamide]
< 10	COc1cccc(C(=O)N2c3ccccc3[C@@H](N(C(C)=O)c3ccc(Cl)cc3)C[C@H]2C)c1 [Compound B-9, (2R,4S)-cis-N-(4-chloro-phenyl)-N-[1-(3-methoxy-benzoyl)-2-methyl-1,2,3,4-tetrahydro-quinolin-4-yl]-acetamide]
< 10	Cc1ccc(C(=O)N2c3ccccc3[C@@H](N(C(=O)C(C)C)c3ccc(Cl)cc3)C[C@H]2C)s1 [Compound B-11, (2R,4S)-cis-N-(4-Chloro-phenyl)-N-[2-methyl-1-(5-methyl-thiophene-2-carbonyl)-1,2,3,4-tetrahydro-quinolin-4-yl]-isobutyramide]
< 10	CCC(=O)N(c1ccc(Cl)cc1)[C@H]1C[C@@H](C)N(C(=O)c2ccc(OC)cc2)c2ccccc21 [Compound B-18, (2R,4S)-cis-N-(4-chloro-phenyl)-N-[1-(4-methoxy-benzoyl)-2-methyl-1,2,3,4-tetrahydro-quinolin-4-yl]-propionamide]
< 10	CC(=O)N(c1ccc(Cl)cc1)[C@H]1C[C@@H](C)N(C(=O)c2ccc(F)cc2)c2ccccc21 [Compound B-26, (2R,4S)-cis-N-(4-chloro-phenyl)-N-[1-(4-fluoro-benzoyl)-2-methyl-1,2,3,4-tetrahydro-quinolin-4-yl]-acetamide]
< 10	CC(=O)N(c1ccc(Cl)cc1)[C@H]1C[C@@H](C)N(C(=O)c2ccc(C)s2)c2ccccc21 [Compound B-28, (2R,4S)-cis-N-(4-Chloro-phenyl)-N-[2-methyl-1-(5-methyl-thiophene-2-carbonyl)-1,2,3,4-tetrahydro-quinolin-4-yl]-acetamide]
< 10	COc1ccc(C(=O)N2c3ccccc3[C@@H](N(C(C)=O)c3ccc(Cl)cc3)C[C@H]2C)cc1 [Compound B-34, (2R,4S)-cis-N-(4-Chloro-phenyl)-N-[1-(4-methoxy-benzoyl)-2-methyl-1,2,3,4-tetrahydro-quinolin-4-yl]-acetamide]
< 10	COc1ccc(C(=O)N2c3cc(C)ccc3[C@@H](N(C(C)=O)c3ccc(Cl)cc3)C[C@H]2C)cc1 [Compound B-58, (2R,4S)-cis-N-(4-chloro-phenyl)-N-[1-(4-methoxy-benzoyl)-2,7-dimethyl-1,2,3,4-tetrahydro-quinolin-4-yl]-acetamide]
< 10	CCOCCOc1ccc2c(c1)C(N(C(=O)CC)c1ccc(Cl)cc1)CC(C)N2C(=O)c1ccc(F)cc1 (stereo not drawn) [Compound B-68]
< 10	CC(=O)N(c1ccc(Cl)cc1)[C@@H]1C[C@H](C)N(C(=O)c2ccc(/C=C/C(=O)O)cc2)c2ccccc21 [Compound C-33, (2S,4R)-3-(4-{4-[Acetyl-(4-chloro-phenyl)-amino]-2-methyl-3,4-dihydro-2H-quinoline-1-carbonyl}-phenyl)-acrylic acid]
